Results taken from ChEMBL document CHEMBL1201862, “PubChem BioAssay data set” (2004).
Blank lines part the entries; values can stand above or below the molecule they belong to. Activity calls are given as the source filed them.

Assays:
Aminopeptidase N = target: T1, Aminopeptidase N (Plasmodium falciparum FcB1/Columbia, UniProt O96935); experiment: malaria alanyl aminopeptidase activity blockers – biochemical, fluorogenic H-Leu-NHMec substrate, 1536-well (AID 1445); set-up: species or system Plasmodium falciparum 3D7, 3D7
T1 sequence (O96935 whole entry): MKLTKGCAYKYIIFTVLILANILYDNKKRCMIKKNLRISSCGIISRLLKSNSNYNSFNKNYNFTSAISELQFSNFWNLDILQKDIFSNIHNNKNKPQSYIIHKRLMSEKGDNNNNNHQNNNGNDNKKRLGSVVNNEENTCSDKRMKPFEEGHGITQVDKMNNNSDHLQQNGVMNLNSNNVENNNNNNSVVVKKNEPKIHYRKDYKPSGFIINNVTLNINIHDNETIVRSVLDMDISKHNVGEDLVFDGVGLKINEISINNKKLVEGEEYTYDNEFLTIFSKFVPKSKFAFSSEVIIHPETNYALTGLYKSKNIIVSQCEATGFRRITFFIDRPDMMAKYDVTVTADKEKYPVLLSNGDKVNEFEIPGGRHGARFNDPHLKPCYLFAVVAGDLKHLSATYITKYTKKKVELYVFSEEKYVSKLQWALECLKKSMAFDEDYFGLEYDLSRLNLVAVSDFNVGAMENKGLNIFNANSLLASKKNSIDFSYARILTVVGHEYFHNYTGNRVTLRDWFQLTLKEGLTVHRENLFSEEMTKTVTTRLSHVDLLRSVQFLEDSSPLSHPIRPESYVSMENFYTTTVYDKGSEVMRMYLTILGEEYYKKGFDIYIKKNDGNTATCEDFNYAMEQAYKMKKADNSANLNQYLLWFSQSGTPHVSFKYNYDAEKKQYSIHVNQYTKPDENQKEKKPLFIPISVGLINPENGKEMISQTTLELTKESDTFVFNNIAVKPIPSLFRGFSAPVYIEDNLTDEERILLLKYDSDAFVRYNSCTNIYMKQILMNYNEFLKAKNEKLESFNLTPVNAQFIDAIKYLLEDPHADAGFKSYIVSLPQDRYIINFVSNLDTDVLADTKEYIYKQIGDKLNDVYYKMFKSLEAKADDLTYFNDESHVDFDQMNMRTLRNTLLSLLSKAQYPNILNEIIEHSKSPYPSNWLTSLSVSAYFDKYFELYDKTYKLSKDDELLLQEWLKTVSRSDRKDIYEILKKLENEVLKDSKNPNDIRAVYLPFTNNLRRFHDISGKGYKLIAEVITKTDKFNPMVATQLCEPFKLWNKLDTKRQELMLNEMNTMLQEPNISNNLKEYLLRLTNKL

[1] = target: T2, Runt-related transcription factor 1/Core-binding factor subunit beta (Homo sapiens, UniProt Q01196+Q13951); experiment: disruptors of Runt domain/CBFb-SMMHC interaction – biochemical, FRET, Cerulean-Runt, Venus-CBFb-SMMHC, uHTS, […] (AID 1434); type: protein assay
T2 sequence (Q01196 whole entry, the tested form may be a part): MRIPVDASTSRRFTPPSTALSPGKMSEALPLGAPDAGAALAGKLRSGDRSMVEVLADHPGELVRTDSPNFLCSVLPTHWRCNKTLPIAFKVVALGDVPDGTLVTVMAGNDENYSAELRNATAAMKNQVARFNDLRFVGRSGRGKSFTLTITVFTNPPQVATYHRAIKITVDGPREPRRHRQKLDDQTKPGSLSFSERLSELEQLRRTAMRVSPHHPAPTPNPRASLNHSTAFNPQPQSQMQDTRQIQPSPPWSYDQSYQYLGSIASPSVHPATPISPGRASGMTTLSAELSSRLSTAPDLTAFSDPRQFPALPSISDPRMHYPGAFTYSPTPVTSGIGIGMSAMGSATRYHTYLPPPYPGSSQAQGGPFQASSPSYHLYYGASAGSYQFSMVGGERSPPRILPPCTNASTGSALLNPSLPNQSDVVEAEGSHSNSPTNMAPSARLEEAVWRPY
T2 sequence (Q13951 whole entry, the tested form may be a part): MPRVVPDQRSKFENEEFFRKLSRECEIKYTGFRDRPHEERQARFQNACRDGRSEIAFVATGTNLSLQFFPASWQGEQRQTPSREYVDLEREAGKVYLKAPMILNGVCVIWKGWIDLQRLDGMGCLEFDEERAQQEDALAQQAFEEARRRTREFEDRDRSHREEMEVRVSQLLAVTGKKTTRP

[2] = target: T2, Runt-related transcription factor 1/Core-binding factor subunit beta; experiment: Runt domain/CBFb-SMMHC interaction disruptors – biochemical, TR-FRET (AID 1438); type: protein assay
[3] = target: Sphingosine 1-phosphate receptor 5 (Homo sapiens, UniProt Q9H228); experiment: Late stage counterscreen assay for S1P4 antagonists: Fluorescence dose response cell-based screening assay for antagonists of the Sphingosine 1-Phosphate Receptor 5 (S1P5). [Related pubchem assays (depositor defined):AID1510, AID1524, AID1692, AID1853, AID2332, AID489009, AID489017]; type: functional
Sequence of Sphingosine 1-phosphate receptor 5 (Q9H228 whole entry): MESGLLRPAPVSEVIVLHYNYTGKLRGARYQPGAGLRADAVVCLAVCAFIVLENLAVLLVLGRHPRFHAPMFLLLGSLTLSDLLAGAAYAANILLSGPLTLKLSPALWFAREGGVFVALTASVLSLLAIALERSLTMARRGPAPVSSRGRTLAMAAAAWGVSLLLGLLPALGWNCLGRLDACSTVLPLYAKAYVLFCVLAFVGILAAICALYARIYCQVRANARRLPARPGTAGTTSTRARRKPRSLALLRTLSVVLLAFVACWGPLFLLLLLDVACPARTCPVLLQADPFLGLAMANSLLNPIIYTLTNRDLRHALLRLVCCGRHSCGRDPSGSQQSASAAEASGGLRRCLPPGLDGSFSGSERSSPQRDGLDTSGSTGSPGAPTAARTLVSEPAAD

[4] = target: Sphingosine 1-phosphate receptor 3 (Homo sapiens, UniProt Q99500); experiment: Late stage counterscreen assay for S1P4 antagonists: Fluorescence dose response cell-based screening assay for antagonists of the Sphingosine 1-Phosphate Receptor 3 (S1P3). [Related pubchem assays (depositor defined):AID1510, AID1524, AID1692, AID1853, AID2332, AID489009, AID489017]; type: functional
[5] = target: Sphingosine 1-phosphate receptor 1 (Homo sapiens, UniProt P21453); experiment: Late stage counterscreen assay for S1P4 antagonists: Fluorescence dose response cell-based screening assay for antagonists of the Sphingosine 1-Phosphate Receptor 1 (S1P1). [Related pubchem assays (depositor defined):AID1510, AID1524, AID1692, AID1853, AID2332, AID489009, AID489017]; type: functional
[6] = target: Sphingosine 1-phosphate receptor 2 (Homo sapiens, UniProt O95136); experiment: Late stage counterscreen assay for S1P4 antagonists: Fluorescence dose response cell-based screening assay for antagonists of the Sphingosine 1-Phosphate Receptor 2 (S1P2). [Related pubchem assays (depositor defined):AID1510, AID1524, AID1692, AID1853, AID2332, AID489009, AID489017]; type: functional
Sequence of Sphingosine 1-phosphate receptor 2 (O95136 whole entry): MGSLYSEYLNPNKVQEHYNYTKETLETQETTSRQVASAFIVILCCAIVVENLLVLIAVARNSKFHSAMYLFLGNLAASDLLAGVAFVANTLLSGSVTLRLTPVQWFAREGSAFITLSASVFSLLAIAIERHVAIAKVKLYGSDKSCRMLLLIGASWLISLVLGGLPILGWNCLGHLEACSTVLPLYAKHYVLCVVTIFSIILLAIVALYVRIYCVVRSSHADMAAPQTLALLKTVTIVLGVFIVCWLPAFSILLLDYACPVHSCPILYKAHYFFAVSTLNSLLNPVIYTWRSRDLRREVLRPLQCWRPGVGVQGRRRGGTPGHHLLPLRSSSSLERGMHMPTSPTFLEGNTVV

[7] = target: T3, Intestinal-type alkaline phosphatase (Homo sapiens, UniProt P09923); experiment: Dose Response confirmation of uHTS hits from a small molecule inhibitors of human intestinal alkaline phosphatase via a luminescent assay. [Related pubchem assays (depositor defined):AID2544, AID2574]; type: functional
T3 sequence (P09923 whole entry): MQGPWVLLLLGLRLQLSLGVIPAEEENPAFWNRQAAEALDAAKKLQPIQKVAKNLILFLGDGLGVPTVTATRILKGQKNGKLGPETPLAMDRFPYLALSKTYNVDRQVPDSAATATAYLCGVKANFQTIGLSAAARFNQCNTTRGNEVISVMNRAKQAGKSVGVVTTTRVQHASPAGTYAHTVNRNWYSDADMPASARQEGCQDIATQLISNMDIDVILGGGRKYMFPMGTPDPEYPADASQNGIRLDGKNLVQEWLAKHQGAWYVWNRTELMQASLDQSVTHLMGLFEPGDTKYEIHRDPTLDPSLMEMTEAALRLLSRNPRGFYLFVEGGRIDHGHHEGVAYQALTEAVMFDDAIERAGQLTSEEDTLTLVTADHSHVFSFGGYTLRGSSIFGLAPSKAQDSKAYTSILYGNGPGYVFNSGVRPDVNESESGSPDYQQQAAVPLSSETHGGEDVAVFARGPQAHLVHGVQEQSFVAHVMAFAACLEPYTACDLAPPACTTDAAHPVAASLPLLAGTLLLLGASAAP

[8] = target: T3, Intestinal-type alkaline phosphatase; experiment: human intestinal alkaline phosphatase activators, dose response, biochemical, luminescence, uHTS hits (AID 463120); type: functional
[9] = target: T4, Tyrosine-protein phosphatase non-receptor type 7 (Homo sapiens, UniProt P35236); type: functional
T4 sequence (P35236 whole entry): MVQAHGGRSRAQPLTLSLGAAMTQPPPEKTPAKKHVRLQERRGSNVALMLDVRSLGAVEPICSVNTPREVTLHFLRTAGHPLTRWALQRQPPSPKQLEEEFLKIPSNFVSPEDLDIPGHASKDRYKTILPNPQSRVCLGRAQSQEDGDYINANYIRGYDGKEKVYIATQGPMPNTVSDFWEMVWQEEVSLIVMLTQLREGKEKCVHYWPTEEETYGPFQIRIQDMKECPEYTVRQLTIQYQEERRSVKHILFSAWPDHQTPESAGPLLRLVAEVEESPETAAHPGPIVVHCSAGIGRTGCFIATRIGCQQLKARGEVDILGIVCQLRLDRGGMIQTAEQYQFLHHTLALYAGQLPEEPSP

[10] = target: T5, Tyrosine-protein phosphatase non-receptor type 22 (Homo sapiens, UniProt Q9Y2R2); type: functional
T5 sequence (Q9Y2R2 whole entry): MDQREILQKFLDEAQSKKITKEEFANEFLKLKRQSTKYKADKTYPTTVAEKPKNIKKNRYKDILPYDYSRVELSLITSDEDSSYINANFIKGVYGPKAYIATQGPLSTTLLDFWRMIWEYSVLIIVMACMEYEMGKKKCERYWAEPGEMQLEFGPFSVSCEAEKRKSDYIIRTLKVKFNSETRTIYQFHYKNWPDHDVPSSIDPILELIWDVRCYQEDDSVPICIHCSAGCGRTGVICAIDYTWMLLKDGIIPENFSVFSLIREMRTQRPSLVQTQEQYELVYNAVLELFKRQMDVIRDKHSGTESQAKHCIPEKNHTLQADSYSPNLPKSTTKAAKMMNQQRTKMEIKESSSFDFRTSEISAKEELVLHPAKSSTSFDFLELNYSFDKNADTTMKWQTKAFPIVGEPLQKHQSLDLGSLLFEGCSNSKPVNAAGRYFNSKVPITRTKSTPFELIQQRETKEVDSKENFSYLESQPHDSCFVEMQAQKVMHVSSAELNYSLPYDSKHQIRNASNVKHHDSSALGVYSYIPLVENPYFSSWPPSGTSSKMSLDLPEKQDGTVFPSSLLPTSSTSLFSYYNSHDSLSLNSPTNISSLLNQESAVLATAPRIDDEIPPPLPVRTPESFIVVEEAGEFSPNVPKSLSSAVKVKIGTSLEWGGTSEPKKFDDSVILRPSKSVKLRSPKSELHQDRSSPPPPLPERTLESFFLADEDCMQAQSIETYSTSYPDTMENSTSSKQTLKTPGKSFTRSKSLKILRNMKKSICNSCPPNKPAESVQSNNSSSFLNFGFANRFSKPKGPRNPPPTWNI

[11] = target: T5, Tyrosine-protein phosphatase non-receptor type 22; type: functional; remark: listed apart in the source
[12] = target: Signal transducer and activator of transcription 3 (Homo sapiens, UniProt P40763); experiment: STAT3 blockade with qPCR and toxicity readouts – cell-based, STAT1 panel, cytotoxicity, late-stage follow-up, panel member STAT3 Inhibition (AID 2078)
Sequence of Signal transducer and activator of transcription 3 (P40763 whole entry): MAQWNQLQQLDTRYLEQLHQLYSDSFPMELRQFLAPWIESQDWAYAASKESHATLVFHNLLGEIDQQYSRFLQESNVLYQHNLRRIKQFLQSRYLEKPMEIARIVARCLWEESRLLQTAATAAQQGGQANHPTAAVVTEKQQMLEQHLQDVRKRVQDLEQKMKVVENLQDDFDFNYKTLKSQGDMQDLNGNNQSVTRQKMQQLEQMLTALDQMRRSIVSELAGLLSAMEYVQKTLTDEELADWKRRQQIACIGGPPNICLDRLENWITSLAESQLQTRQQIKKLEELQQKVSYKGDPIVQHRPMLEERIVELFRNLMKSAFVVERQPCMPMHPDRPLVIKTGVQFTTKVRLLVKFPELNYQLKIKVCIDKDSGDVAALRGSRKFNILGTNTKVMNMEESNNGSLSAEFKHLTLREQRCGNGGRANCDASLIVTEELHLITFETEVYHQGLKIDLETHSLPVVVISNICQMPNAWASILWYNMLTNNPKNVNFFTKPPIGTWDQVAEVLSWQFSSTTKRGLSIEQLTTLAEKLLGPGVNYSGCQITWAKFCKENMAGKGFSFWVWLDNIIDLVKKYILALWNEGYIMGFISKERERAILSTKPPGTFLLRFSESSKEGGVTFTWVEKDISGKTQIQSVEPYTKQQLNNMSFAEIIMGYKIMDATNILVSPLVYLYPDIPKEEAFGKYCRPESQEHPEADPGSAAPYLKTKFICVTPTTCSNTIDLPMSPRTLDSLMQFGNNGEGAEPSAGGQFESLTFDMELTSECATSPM

[13] = target: Signal transducer and activator of transcription 1-alpha/beta (Homo sapiens, UniProt P42224); experiment: STAT3 blockade with qPCR and toxicity readouts – cell-based, STAT1 panel, cytotoxicity, late-stage follow-up, panel member STAT1 Inhibition (AID 2078)
Sequence of Signal transducer and activator of transcription 1-alpha/beta (P42224 whole entry): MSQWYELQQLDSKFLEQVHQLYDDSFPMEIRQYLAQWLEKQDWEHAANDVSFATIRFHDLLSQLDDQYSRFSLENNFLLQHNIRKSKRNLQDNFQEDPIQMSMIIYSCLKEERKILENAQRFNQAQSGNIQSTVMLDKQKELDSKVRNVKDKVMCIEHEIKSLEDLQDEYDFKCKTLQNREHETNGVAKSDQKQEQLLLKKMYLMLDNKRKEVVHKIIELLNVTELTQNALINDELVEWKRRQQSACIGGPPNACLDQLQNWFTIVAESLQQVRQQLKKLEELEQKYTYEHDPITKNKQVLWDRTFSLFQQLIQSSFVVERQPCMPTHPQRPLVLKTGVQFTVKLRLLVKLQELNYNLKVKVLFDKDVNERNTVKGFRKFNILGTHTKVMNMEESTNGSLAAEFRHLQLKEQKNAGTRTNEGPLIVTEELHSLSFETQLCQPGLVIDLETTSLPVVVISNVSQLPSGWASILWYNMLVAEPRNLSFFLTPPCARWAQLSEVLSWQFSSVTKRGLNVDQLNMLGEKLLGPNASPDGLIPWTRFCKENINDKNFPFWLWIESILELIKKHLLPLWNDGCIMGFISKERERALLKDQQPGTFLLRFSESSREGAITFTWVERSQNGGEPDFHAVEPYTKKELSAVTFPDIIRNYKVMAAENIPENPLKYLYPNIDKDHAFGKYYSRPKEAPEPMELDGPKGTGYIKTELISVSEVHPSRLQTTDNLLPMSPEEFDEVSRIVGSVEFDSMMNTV

[14] = target: Voltage-dependent T-type calcium channel subunit alpha-1H (Homo sapiens, UniProt O95180); experiment: inhibition of CACNA1H calcium flux – cell-based, SynthLib3 library, HEK293 Cav3.2, fluorescence (AID 493041); type: functional
[15] = target: T4, Tyrosine-protein phosphatase non-receptor type 7; experiment: inhibition of hematopoietic tyrosine phosphatase HePTP – biochemical, set 2, SAR follow-up (AID 449736); type: functional
[16] = target: T6, Kappa-type opioid receptor (Homo sapiens, UniProt P41145); experiment: kappa opioid receptor activation by imaging – image-based, set 3, SAR follow-up (AID 488833); type: functional
T6 sequence (P41145 whole entry): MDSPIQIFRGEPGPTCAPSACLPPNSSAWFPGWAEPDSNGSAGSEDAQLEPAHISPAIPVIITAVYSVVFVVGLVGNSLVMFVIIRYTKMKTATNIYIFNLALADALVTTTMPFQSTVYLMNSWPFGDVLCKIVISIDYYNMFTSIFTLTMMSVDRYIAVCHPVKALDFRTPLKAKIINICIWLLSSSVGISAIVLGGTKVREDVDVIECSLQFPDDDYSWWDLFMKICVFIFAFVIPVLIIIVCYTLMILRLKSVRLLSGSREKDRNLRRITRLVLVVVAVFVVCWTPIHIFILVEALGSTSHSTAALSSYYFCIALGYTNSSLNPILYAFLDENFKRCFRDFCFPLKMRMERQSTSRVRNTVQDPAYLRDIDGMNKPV

Mu-type opioid receptor = Mu-type opioid receptor (Homo sapiens, UniProt P35372); experiment: SAR Analysis of Agonists of the MOR Receptor using an Image-Based Assay - Set 3. [Related pubchem assays (depositor defined):AID1777, AID1785, AID1786, AID1966, AID2133, AID2136, AID2284, AID2285, AID2352]; type: functional
[17] = target: Delta-type opioid receptor (Homo sapiens, UniProt P41143); experiment: SAR Analysis of Agonists of the DOR Receptor using an Image-Based Assay - Set 3. [Related pubchem assays (depositor defined):AID1777, AID1786]; type: functional
[18] = target: T6, Kappa-type opioid receptor; experiment: SAR analysis of small molecule agonists of the kappa opioid receptor via a luminescent beta-arrestin assay - Set 3. [Related pubchem assays (depositor defined):AID1777, AID1785, AID1786, AID1966, AID2133, AID2136, AID2284, AID2500]; type: functional
Hexokinase HKDC1 = Hexokinase HKDC1 (Homo sapiens, UniProt Q2TB90); experiment: inhibition of HKDC1 glucose phosphorylation – biochemical, W721R variant, dose response (AID 504729); type: functional
Sequence of Hexokinase HKDC1 (Q2TB90 whole entry): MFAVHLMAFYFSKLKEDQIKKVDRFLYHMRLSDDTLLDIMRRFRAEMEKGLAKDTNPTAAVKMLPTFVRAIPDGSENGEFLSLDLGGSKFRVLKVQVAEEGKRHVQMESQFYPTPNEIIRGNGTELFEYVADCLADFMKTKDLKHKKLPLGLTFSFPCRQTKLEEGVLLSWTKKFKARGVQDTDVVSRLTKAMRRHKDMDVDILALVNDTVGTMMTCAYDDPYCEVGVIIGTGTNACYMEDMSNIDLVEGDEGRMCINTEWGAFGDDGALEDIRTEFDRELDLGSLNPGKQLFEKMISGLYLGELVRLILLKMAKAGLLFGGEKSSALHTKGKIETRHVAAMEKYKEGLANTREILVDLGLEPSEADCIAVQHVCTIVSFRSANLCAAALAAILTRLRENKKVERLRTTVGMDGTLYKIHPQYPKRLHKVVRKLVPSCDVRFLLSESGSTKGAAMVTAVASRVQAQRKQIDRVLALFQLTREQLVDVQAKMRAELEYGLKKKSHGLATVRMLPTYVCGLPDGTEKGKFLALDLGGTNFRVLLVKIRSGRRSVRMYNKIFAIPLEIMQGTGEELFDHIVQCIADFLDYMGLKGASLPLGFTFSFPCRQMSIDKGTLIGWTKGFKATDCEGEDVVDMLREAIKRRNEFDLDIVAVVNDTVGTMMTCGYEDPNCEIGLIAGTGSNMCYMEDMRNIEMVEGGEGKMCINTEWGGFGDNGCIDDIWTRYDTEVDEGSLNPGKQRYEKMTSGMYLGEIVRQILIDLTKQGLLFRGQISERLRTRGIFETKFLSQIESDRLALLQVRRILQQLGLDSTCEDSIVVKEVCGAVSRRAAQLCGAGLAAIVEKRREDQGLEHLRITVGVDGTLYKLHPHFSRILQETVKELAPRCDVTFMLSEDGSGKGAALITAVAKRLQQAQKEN

Hexokinase-1 = Hexokinase-1 (Homo sapiens, UniProt P19367); experiment: HK1 enzyme activation by HKDC1 hits – biochemical, selectivity assay for HKDC1 activator project, dose response (AID 504762); type: functional
[19] = target: T7, Rac GTPase-activating protein 1 (Homo sapiens, UniProt Q9H0H5); experiment: blockers of MgcRacGAP-driven Rac1 GTP hydrolysis – biochemical, ADP Hunter fluorescence, primary and confirmatory, confirmation (AID 624330); type: functional
T7 sequence (Q9H0H5 whole entry): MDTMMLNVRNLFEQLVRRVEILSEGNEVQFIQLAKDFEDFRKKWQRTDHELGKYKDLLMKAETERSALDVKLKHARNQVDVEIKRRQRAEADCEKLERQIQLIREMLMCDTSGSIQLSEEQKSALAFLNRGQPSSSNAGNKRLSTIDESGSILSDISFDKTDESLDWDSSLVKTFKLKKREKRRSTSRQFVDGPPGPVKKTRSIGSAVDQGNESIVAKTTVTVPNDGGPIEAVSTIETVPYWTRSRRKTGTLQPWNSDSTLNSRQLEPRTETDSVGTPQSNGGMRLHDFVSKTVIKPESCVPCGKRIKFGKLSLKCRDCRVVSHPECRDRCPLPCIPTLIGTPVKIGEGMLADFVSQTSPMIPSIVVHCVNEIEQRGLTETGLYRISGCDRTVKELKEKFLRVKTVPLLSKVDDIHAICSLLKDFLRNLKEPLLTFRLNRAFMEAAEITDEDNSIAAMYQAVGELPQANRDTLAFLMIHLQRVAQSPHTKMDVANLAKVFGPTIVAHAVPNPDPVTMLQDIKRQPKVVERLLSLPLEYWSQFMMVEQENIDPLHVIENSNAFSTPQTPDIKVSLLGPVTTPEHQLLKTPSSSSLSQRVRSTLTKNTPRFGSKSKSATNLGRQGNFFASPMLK

IC50 [7]: > 100 µM (inactive)
EC50 [8]: > 100 µM (inactive)
SMILES: CCC(OC(=O)C1=Cc2ccccc2OC1)C(=O)NC1CCCC1 (stereo not drawn)

IC50 [9]: > 79.4 µM (inactive)
IC50 [10]: > 79.4 µM (inactive)
IC50 [11]: > 79.4 µM (inactive)
SMILES: COc1ccc(S(=O)(=O)N2CCCCCC2)cc1C(=O)OCc1c(C)noc1C

IC50 [15]: 66.5 µM (active)
SMILES: NS(=O)(=O)c1ccc(NC(=S)NC2CCCc3ccccc32)cc1 (stereo not drawn)

IC50 (Hexokinase HKDC1): > 80 µM (inactive)
EC50 (Hexokinase-1): > 80 µM (inactive)
IC50 [19]: 160 µM (active)
SMILES: O=C(CNC(=O)c1ccc2c(c1)OCCO2)N/N=C/c1ccc(O)cc1O

Further lines, the molecule ahead of its results:

SMILES: CC(C)OCCCn1c(-c2ccco2)nc2nc3ccccc3nc21
IC50 (Aminopeptidase N): 92.6 µM (active)
IC50 [1]: 7.07 µM (active)
IC50 [2]: > 100 µM (inactive)

SMILES: Cc1ccc(S(C)(=O)=O)c(C)c1NC(=O)c1ccc(-c2cc(Cl)ccc2Cl)o1
IC50 [3]: > 25 µM (inactive)
IC50 [4]: 15.8 µM (inactive)
IC50 [5]: > 25 µM (inactive)
IC50 [6]: 13.8 µM (inactive)

SMILES: c1ccc(CC2CCN(c3ncnc4scc(-c5cccs5)c34)CC2)cc1
IC50 [12]: 16.7 µM (inactive)
IC50 [13]: > 55.7 µM (inactive)

SMILES: CCC(C)CN1C[C@@H]2C(CNC(=O)c3cc(Cl)cc(Cl)c3)[C@@H]2C1 (stereo partly drawn)
EC50 [14]: 4 µM (active)

SMILES: CC(=O)Oc1ccc(CSc2nnc(-c3ccccn3)n2Cc2ccco2)cc1
EC50 [16]: > 32 µM (inactive)
EC50 (Mu-type opioid receptor): > 32 µM (inactive)
EC50 [17]: > 64 µM (inactive)
EC50 [18]: > 20 µM (inactive)
